Measured values reported in US10336732B2, “1-heterocyclyl isochromanyl compounds and analogs for treating CNS disorders” (Sunovion Pharmaceuticals Inc., priority 2015, dated 2019).

test system: mice; assay: Neuropharmacological assay (SmartCube), behavioral signature of compound-treated mice; type: in vivo; settings: i.p. 15 min before behavioral test, most efficacious dose(s) of 3 doses
In short: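 Read-out is an automated video-based behavioral signature, scored as per-class probabilities (e.g., anxiolytic, antidepressant) against reference compounds. Dosing was i.p. at three doses, 15 min pre-test, in NMP, polyethylene glycol and propylene glycol. Values shown are from the most efficacious dose(s).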

| Structure (SMILES) | AD: ADHD (probability that behavioral signature matches class) | AG: analgesic (probability that behavioral signature matches class) | AX: anxiolytic (probability that behavioral signature matches class) | CE: cognitive enhancer (probability that behavioral signature matches class) | DP: anti-depressant (probability that behavioral signature matches class) | HA: hallucinogen (probability that behavioral signature matches class) | MS: mood stabilizer (probability that behavioral signature matches class) | PS: anti-psychotic (probability that behavioral signature matches class) | SD: sedative hypnotic (probability that behavioral signature matches class) | UN: uncharacterized CNS activity (probability that behavioral signature matches class) |
| --- | --- | --- | --- | --- | --- | --- | --- | --- | --- | --- |
| Fc1ccc2c(c1)CCO[C@H]2[C@@H]1CCCCN1 [Compound I-74, (S)-2-((R)-6-fluoroisochroman-1-yl)piperidine] | + (LOQ ≤ + <5%) | ++ (5% ≤ ++ <25%) | ++ (5% ≤ ++ <25%) | ++ (5% ≤ ++ <25%) | ++ (5% ≤ ++ <25%) | + (LOQ ≤ + <5%) | + (LOQ ≤ + <5%) | +++ (25% ≤ +++ <50%) | ++ (5% ≤ ++ <25%) | + (LOQ ≤ + <5%) |
| Fc1ccc2c(c1)[C@H]([C@@H]1CCCN1)OCCC2 [Compound I-107, (S)-2-((R)-8-fluoro-1,3,4,5-tetrahydrobenzo[c]oxepin-1-yl)pyrrolidine] | + (LOQ ≤ + <5%) | ++ (5% ≤ ++ <25%) | +++ (25% ≤ +++ <50%) | ++ (5% ≤ ++ <25%) | ++ (5% ≤ ++ <25%) | + (LOQ ≤ + <5%) | ++ (5% ≤ ++ <25%) | +++ (25% ≤ +++ <50%) | ++ (5% ≤ ++ <25%) | ++ (5% ≤ ++ <25%) |
| c1cc2c(c3c1CO[C@@H]3[C@@H]1CCCN1)OCO2 [Compound I-142, (S)-2-((S)-6,8-dihydro-[1,3]dioxolo[4,5-e]isobenzofuran-8-yl)-pyrrolidine] | + (LOQ ≤ + <5%) | ++ (5% ≤ ++ <25%) | +++ (25% ≤ +++ <50%) | ++ (5% ≤ ++ <25%) | ++ (5% ≤ ++ <25%) | + (LOQ ≤ + <5%) | + (LOQ ≤ + <5%) | ++ (5% ≤ ++ <25%) | + (LOQ ≤ + <5%) | ++ (5% ≤ ++ <25%) |
| N#Cc1ccc2c(c1)[C@H]([C@H]1CCCN1)OCC2 [Compound I-41, (R)-1-((R)-pyrrolidin-2-yl)isochroman-7-carbonitrile] | + (LOQ ≤ + <5%) | ++ (5% ≤ ++ <25%) | ++ (5% ≤ ++ <25%) | ++ (5% ≤ ++ <25%) | +++ (25% ≤ +++ <50%) | + (LOQ ≤ + <5%) | ++ (5% ≤ ++ <25%) | ++ (5% ≤ ++ <25%) | ++ (5% ≤ ++ <25%) | + (LOQ ≤ + <5%) |
| FC1(F)CN[C@H]([C@@H]2OCCc3ccccc32)C1 [Compound I-64, (S)-4,4-difluoro-2-((R)-isochroman-1-yl)pyrrolidine] | + (LOQ ≤ + <5%) | + (LOQ ≤ + <5%) | ++ (5% ≤ ++ <25%) | + (LOQ ≤ + <5%) | + (LOQ ≤ + <5%) | + (LOQ ≤ + <5%) | + (LOQ ≤ + <5%) | + (LOQ ≤ + <5%) | + (LOQ ≤ + <5%) | + (LOQ ≤ + <5%) |
| c1ccc2c(c1)CCO[C@@H]2[C@@H]1CCN1 [Compound I-79, (S)-2-((S)-isochroman-1-yl)azetidine] | ++ (5% ≤ ++ <25%) | ++ (5% ≤ ++ <25%) | +++ (25% ≤ +++ <50%) | ++ (5% ≤ ++ <25%) | ++ (5% ≤ ++ <25%) | + (LOQ ≤ + <5%) | ++ (5% ≤ ++ <25%) | +++ (25% ≤ +++ <50%) | + (LOQ ≤ + <5%) | + (LOQ ≤ + <5%) |
| CC1(C)Cc2ccccc2[C@@H]([C@H]2CCCN2)O1 [Compound I-67, (R)-2-((S)-3,3-dimethylisochroman-1-yl)pyrrolidine] | + (LOQ ≤ + <5%) | + (LOQ ≤ + <5%) | + (LOQ ≤ + <5%) | + (LOQ ≤ + <5%) | + (LOQ ≤ + <5%) | + (LOQ ≤ + <5%) | + (LOQ ≤ + <5%) | + (LOQ ≤ + <5%) | + (LOQ ≤ + <5%) | + (LOQ ≤ + <5%) |
| c1ccc2c(c1)CCCO[C@H]2[C@H]1CCCN1 [Compound I-100, (R)-2-((R)-1,3,4,5-tetrahydrobenzo[c]oxepin-1-yl)pyrrolidine] | + (LOQ ≤ + <5%) | ++ (5% ≤ ++ <25%) | ++ (5% ≤ ++ <25%) | +++ (25% ≤ +++ <50%) | ++ (5% ≤ ++ <25%) | + (LOQ ≤ + <5%) | ++ (5% ≤ ++ <25%) | +++ (25% ≤ +++ <50%) | ++ (5% ≤ ++ <25%) | + (LOQ ≤ + <5%) |
| Fc1ccc2c(c1)[C@@H](F)CO[C@H]2[C@@H]1CCCN1 [Compound I-138, (S)-2-((1R,4R)-4,6-difluoroisochroman-1-yl)pyrrolidine] | + (LOQ ≤ + <5%) | + (LOQ ≤ + <5%) | ++ (5% ≤ ++ <25%) | + (LOQ ≤ + <5%) | ++ (5% ≤ ++ <25%) | + (LOQ ≤ + <5%) | + (LOQ ≤ + <5%) | +++ (25% ≤ +++ <50%) | + (LOQ ≤ + <5%) | ++ (5% ≤ ++ <25%) |
| Cc1cccc2c1[C@H]([C@@H]1CCCN1)OCC2 [Compound I-22, (S)-2-((R)-8-methylisochroman-1-yl)pyrrolidine] | + (LOQ ≤ + <5%) | ++ (5% ≤ ++ <25%) | ++ (5% ≤ ++ <25%) | ++ (5% ≤ ++ <25%) | +++ (25% ≤ +++ <50%) | + (LOQ ≤ + <5%) | + (LOQ ≤ + <5%) | +++ (25% ≤ +++ <50%) | + (LOQ ≤ + <5%) | + (LOQ ≤ + <5%) |
| c1ccc(-c2ccc3c(c2)CCO[C@@H]3[C@@H]2CCCN2)nc1 [Compound I-57, 2-((S)-1-((S)-pyrrolidin-2-yl)isochroman-6-yl)pyridine] | + (LOQ ≤ + <5%) | + (LOQ ≤ + <5%) | + (LOQ ≤ + <5%) | + (LOQ ≤ + <5%) | + (LOQ ≤ + <5%) | + (LOQ ≤ + <5%) | + (LOQ ≤ + <5%) | + (LOQ ≤ + <5%) | + (LOQ ≤ + <5%) | + (LOQ ≤ + <5%) |

same assay, conditions: i.p. 15 min before behavioral test, most efficacious dose(s) of 3 doses

| Structure (SMILES) | XG: anxiogenic (probability that behavioral signature matches class) |
| --- | --- |
| Fc1ccc2c(c1)CCO[C@H]2[C@@H]1CCCCN1 [Compound I-74, (S)-2-((R)-6-fluoroisochroman-1-yl)piperidine] | + (LOQ ≤ + <5%) |
| Fc1ccc2c(c1)[C@H]([C@@H]1CCCN1)OCCC2 [Compound I-107, (S)-2-((R)-8-fluoro-1,3,4,5-tetrahydrobenzo[c]oxepin-1-yl)pyrrolidine] | + (LOQ ≤ + <5%) |
| c1cc2c(c3c1CO[C@@H]3[C@@H]1CCCN1)OCO2 [Compound I-142, (S)-2-((S)-6,8-dihydro-[1,3]dioxolo[4,5-e]isobenzofuran-8-yl)-pyrrolidine] | + (LOQ ≤ + <5%) |
| N#Cc1ccc2c(c1)[C@H]([C@H]1CCCN1)OCC2 [Compound I-41, (R)-1-((R)-pyrrolidin-2-yl)isochroman-7-carbonitrile] | + (LOQ ≤ + <5%) |
| FC1(F)CN[C@H]([C@@H]2OCCc3ccccc32)C1 [Compound I-64, (S)-4,4-difluoro-2-((R)-isochroman-1-yl)pyrrolidine] | + (LOQ ≤ + <5%) |
| c1ccc2c(c1)CCO[C@@H]2[C@@H]1CCN1 [Compound I-79, (S)-2-((S)-isochroman-1-yl)azetidine] | + (LOQ ≤ + <5%) |
| CC1(C)Cc2ccccc2[C@@H]([C@H]2CCCN2)O1 [Compound I-67, (R)-2-((S)-3,3-dimethylisochroman-1-yl)pyrrolidine] | + (LOQ ≤ + <5%) |
| c1ccc2c(c1)CCCO[C@H]2[C@H]1CCCN1 [Compound I-100, (R)-2-((R)-1,3,4,5-tetrahydrobenzo[c]oxepin-1-yl)pyrrolidine] | + (LOQ ≤ + <5%) |
| Fc1ccc2c(c1)[C@@H](F)CO[C@H]2[C@@H]1CCCN1 [Compound I-138, (S)-2-((1R,4R)-4,6-difluoroisochroman-1-yl)pyrrolidine] | + (LOQ ≤ + <5%) |
| Cc1cccc2c1[C@H]([C@@H]1CCCN1)OCC2 [Compound I-22, (S)-2-((R)-8-methylisochroman-1-yl)pyrrolidine] | + (LOQ ≤ + <5%) |
| c1ccc(-c2ccc3c(c2)CCO[C@@H]3[C@@H]2CCCN2)nc1 [Compound I-57, 2-((S)-1-((S)-pyrrolidin-2-yl)isochroman-6-yl)pyridine] | + (LOQ ≤ + <5%) |
